Data: patent EP4603105A1, “PHARMACEUTICAL COMPOSITION CONTAINING CYCLIC COMPOUND HAVING SELECTIVE KRAS INHIBITORY EFFECT AGAINST HRAS AND NRAS” (CHUGAI SEIYAKU KABUSHIKI KAISHA, priority 2022, dated 2024)

How the values were obtained:
[1] = biological target: GDP-bound NRAS wild-type protein (Homo sapiens, UniProt P01111); experiment: Binding to NRAS by surface plasmon resonance (SPR), KD and KD ratio to KRAS; details: ratio of the KD value with respect to GDP-bound NRAS wild-type protein to the KD value with respect to KRAS
Sequence of GDP-bound NRAS wild-type protein (P01111 whole entry): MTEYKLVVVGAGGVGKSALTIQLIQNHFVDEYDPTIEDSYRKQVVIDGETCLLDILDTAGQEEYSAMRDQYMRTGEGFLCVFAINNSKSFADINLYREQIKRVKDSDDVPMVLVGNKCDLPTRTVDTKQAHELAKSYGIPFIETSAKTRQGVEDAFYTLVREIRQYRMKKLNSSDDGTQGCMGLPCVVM
How it was run: (§1)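 Running buffer contained 10 µM GDP and 10 mM MgCl2 to keep RAS in the GDP state, with 4% DMSO at pH 7.4. Compounds were flowed at 100 µL/min in 75 s steps of rising concentration over captured biotin-Avi RAS at 30°C. Sensorgrams were fitted 1:1 for KD.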

[2] = biological target: HRAS wild-type protein (Homo sapiens, UniProt P01112); experiment: Binding to HRAS by surface plasmon resonance (SPR), KD and KD ratio to KRAS; details: ratio of the KD value with respect to HRAS wild-type protein to the KD value with respect to KRAS
Sequence of HRAS wild-type protein (P01112 whole entry): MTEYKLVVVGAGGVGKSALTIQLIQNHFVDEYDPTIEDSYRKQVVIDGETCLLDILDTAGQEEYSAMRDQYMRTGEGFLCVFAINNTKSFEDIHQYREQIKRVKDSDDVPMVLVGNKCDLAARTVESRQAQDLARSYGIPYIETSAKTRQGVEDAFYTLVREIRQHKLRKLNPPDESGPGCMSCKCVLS
How it was run: as §1

[3] = tested on: human lung cancer strain NCI-H441; assay type: cell-based
How it was run: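 Step one: dispense the test compound in serial DMSO dilutions. Step three: add the reagent and measure […].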

CCC[C@H]1C(=O)N[C@@H]([C@@H](C)CC)C(=O)N(C)CC(=O)N(C)[C@H]2C/C=C\CCN(C2=O)[C@@H](Cc2ccc(C)cc2)C(=O)N(C)CC(=O)N[C@@H](CCc2ccc(C(F)(F)F)c(Cl)c2)C(=O)N2C[C@H](OCC)C[C@H]2C(=O)NC2(CC(C)(C)C2)C(=O)N(C)[C@@H](CC(C)C)C(=O)N(C)[C@H](C(=O)N(C)C)CC(=O)N1C [PP2224]
NRAS /KRAS [1]: A (a compound having 10 or more and less than 20 is denoted as A) | HRAS /KRAS [2]: A (a compound having 10 or more and less than 20 is denoted as A) | IC50 [3]: 15.4 nM

CCC[C@H]1C(=O)N[C@@H]([C@@H](C)CC)C(=O)N(C)CC(=O)N(C)[C@H]2C/C=C\CCN(C2=O)[C@@H](Cc2ccc(C)cc2)C(=O)N(C)CC(=O)N[C@@H](CCc2ccc(C(F)(F)F)c(Cl)c2)C(=O)N2C[C@H](OCC)C[C@H]2C(=O)NC2(CC(C)(C)C2)C(=O)N(C)[C@@H](CC(F)(F)F)C(=O)N(C)[C@H](C(=O)N(C)C)CC(=O)N1C [PP2226]
NRAS /KRAS [1]: A (a compound having 10 or more and less than 20 is denoted as A) | HRAS /KRAS [2]: A (a compound having 10 or more and less than 20 is denoted as A) | IC50 [3]: 14.7 nM

CCCOC[C@H]1C(=O)N[C@@H]([C@@H](C)CC)C(=O)N(C)CC(=O)N(C)[C@H]2C/C=C\CCN(C2=O)[C@@H](Cc2ccc(C)cc2)C(=O)N(C)CC(=O)N[C@@H](CCc2cc(F)c(C(F)(F)F)c(F)c2)C(=O)N2C[C@H](CCC)C[C@H]2C(=O)NC2(CCCC2)C(=O)N(C)[C@@H](C2CCCC2)C(=O)N(C)[C@H](C(=O)N(C)C)CC(=O)N1C [PP2229]
NRAS /KRAS [1]: A (a compound having 10 or more and less than 20 is denoted as A) | HRAS /KRAS [2]: A (a compound having 10 or more and less than 20 is denoted as A) | IC50 [3]: 39.8 nM

CCC[C@H]1C(=O)N[C@@H]([C@@H](C)CC)C(=O)N(C)CC(=O)N(C)[C@H]2C/C=C\CCN(C2=O)[C@@H](Cc2ccc(C)cc2)C(=O)N(C)CC(=O)N[C@@H](CCc2ccc(C(F)(F)F)c(Cl)c2)C(=O)N2C[C@H](OCC)C[C@H]2C(=O)NC2(CC(C)(C)C2)C(=O)N(C)[C@@H](CC(C)(C)C)C(=O)N(C)[C@H](C(=O)N(C)C)CC(=O)N1C [PP2230]
NRAS /KRAS [1]: A (a compound having 10 or more and less than 20 is denoted as A) | HRAS /KRAS [2]: A (a compound having 10 or more and less than 20 is denoted as A) | IC50 [3]: 7 nM

CCC[C@@H]1C[C@H]2C(=O)NC3(CCC3)C(=O)N(C)[C@@H](C3CCCC3)C(=O)N(C)[C@H](C(=O)N(C)C)CC(=O)N(C)[C@@H](CC(C)C)C(=O)N[C@@H]([C@@H](C)CC)C(=O)N(C)CC(=O)N(C)[C@H]3C/C=C\CCN(C3=O)[C@@H](Cc3ccc(C)cc3)C(=O)N(C)CC(=O)N[C@@H](CCc3cc(F)c(C(F)(F)F)c(F)c3)C(=O)N2C1 [PP2231]
NRAS /KRAS [1]: A (a compound having 10 or more and less than 20 is denoted as A) | HRAS /KRAS [2]: B (a compound having 3 or more and less than 10 is denoted as B) | IC50 [3]: 16.2 nM

CCC[C@@H]1C[C@H]2C(=O)NC3(CCC3)C(=O)N(C)[C@@H](C3CCCC3)C(=O)N(C)[C@H](C(=O)N(C)C)CC(=O)N(C)[C@@H](CC)C(=O)N[C@@H]([C@@H](C)CC)C(=O)N(C)CC(=O)N(C)[C@H]3C/C=C\CCN(C3=O)[C@@H](Cc3ccc(C)cc3)C(=O)N(C)CC(=O)N[C@@H](CCc3cc(F)c(C(F)(F)F)c(F)c3)C(=O)N2C1 [PP2233]
NRAS /KRAS [1]: A (a compound having 10 or more and less than 20 is denoted as A) | HRAS /KRAS [2]: A (a compound having 10 or more and less than 20 is denoted as A) | IC50 [3]: 27.6 nM

CCCOC[C@H]1C(=O)N[C@@H]([C@@H](C)CC)C(=O)N(C)CC(=O)N(C)[C@H]2C/C=C\CCN(C2=O)[C@@H](Cc2ccc(C)cc2)C(=O)N(C)CC(=O)N[C@@H](CCc2ccc(C(F)(F)F)c(Cl)c2)C(=O)N2C[C@H](C)C[C@H]2C(=O)NC2(CC(C)(C)C2)C(=O)N(C)[C@@H](C2CCCC2)C(=O)N(C)[C@H](C(=O)N(C)C)CC(=O)N1C [PP2234]
NRAS /KRAS [1]: A (a compound having 10 or more and less than 20 is denoted as A) | HRAS /KRAS [2]: A (a compound having 10 or more and less than 20 is denoted as A) | IC50 [3]: 11.1 nM

CCC[C@@H]1C[C@H]2C(=O)NC3(CCC3)C(=O)N(C)[C@@H](C3CCCC3)C(=O)N(C)[C@H](C(=O)N(C)C)CC(=O)N(C)[C@@H](CCC)C(=O)N[C@@H]([C@@H](C)CC)C(=O)N(C)CC(=O)N(C)[C@H]3C/C=C\CCN(C3=O)[C@@H](Cc3ccc(C)cc3)C(=O)N(C)CC(=O)N[C@@H](CCc3ccc(C(F)(F)F)c(Cl)c3)C(=O)N2C1 [PP2238]
NRAS /KRAS [1]: A (a compound having 10 or more and less than 20 is denoted as A) | HRAS /KRAS [2]: A (a compound having 10 or more and less than 20 is denoted as A) | IC50 [3]: 39.3 nM

CCO[C@@H]1C[C@H]2C(=O)NC3(CC(C)(C)C3)C(=O)N(C)[C@@H](C3CCCC3)C(=O)N(C)[C@H](C(=O)N(C)CC)CC(=O)N(C)[C@H]3CCCCCc4ccc(cc4)C[C@@H](C(=O)N(C)CC(=O)N[C@@H](CCc4ccc(C(F)(F)F)c(OC)c4)C(=O)N2C1)N1CC/C=C\C[C@@H](C1=O)N(C)C(=O)CN(C)C(=O)[C@H]([C@@H](C)CC)NC3=O [PP2259]
NRAS /KRAS [1]: A (a compound having 10 or more and less than 20 is denoted as A) | HRAS /KRAS [2]: B (a compound having 3 or more and less than 10 is denoted as B) | IC50 [3]: 6.5 nM

CCO[C@@H]1C[C@H]2C(=O)NC3(CC(C)(C)C3)C(=O)N(C)[C@@H](C3CCCC3)C(=O)N(C)[C@H](C(=O)N(C)CC)CC(=O)N(C)[C@H]3CCCCCCc4ccc(cc4)C[C@@H](C(=O)N(C)CC(=O)N[C@@H](CCc4ccc(C(F)(F)F)c(OC)c4)C(=O)N2C1)N1CC/C=C\C[C@@H](C1=O)N(C)C(=O)CN(C)C(=O)[C@H]([C@@H](C)CC)NC3=O [PP2260]
NRAS /KRAS [1]: A (a compound having 10 or more and less than 20 is denoted as A) | HRAS /KRAS [2]: A (a compound having 10 or more and less than 20 is denoted as A) | IC50 [3]: 1.9 nM

CCO[C@@H]1C[C@H]2C(=O)NC3(CCC3)C(=O)N(C)[C@@H](C3CCCC3)C(=O)N(C)[C@H](C(=O)N(C)C)CC(=O)N(C)[C@H]3CCCCCc4ccc(cc4)C[C@@H](C(=O)N(C)CC(=O)N[C@@H](CCc4cc(F)c(C(F)(F)F)c(F)c4)C(=O)N2C1)N1CC/C=C\C[C@@H](C1=O)N(C)C(=O)CN(C)C(=O)[C@H]([C@@H](C)CC)NC3=O [PP2261]
NRAS /KRAS [1]: A (a compound having 10 or more and less than 20 is denoted as A) | HRAS /KRAS [2]: A (a compound having 10 or more and less than 20 is denoted as A) | IC50 [3]: 16.6 nM

CCO[C@@H]1C[C@H]2C(=O)NC3(CCC3)C(=O)N(C)[C@@H](C3CCCC3)C(=O)N(C)[C@H](C(=O)N(C)C)CC(=O)N(C)[C@H]3CCCCCc4ccc(cc4)C[C@@H](C(=O)N(C)CC(=O)N[C@@H](CCc4ccc(C(F)(F)F)c(OC)c4)C(=O)N2C1)N1CC/C=C\C[C@@H](C1=O)N(C)C(=O)CN(C)C(=O)[C@H]([C@@H](C)CC)NC3=O [PP2262]
NRAS /KRAS [1]: A (a compound having 10 or more and less than 20 is denoted as A) | HRAS /KRAS [2]: B (a compound having 3 or more and less than 10 is denoted as B) | IC50 [3]: 3.8 nM

CCO[C@@H]1C[C@H]2C(=O)NC3(CCC3)C(=O)N(C)[C@@H](C3CCCC3)C(=O)N(C)[C@H](C(=O)N(C)C)CC(=O)N(C)[C@H]3CCCCCCc4ccc(cc4)C[C@@H](C(=O)N(C)CC(=O)N[C@@H](CCc4ccc(C(F)(F)F)c(OC)c4)C(=O)N2C1)N1CC/C=C\C[C@@H](C1=O)N(C)C(=O)CN(C)C(=O)[C@H]([C@@H](C)CC)NC3=O [PP2264]
NRAS /KRAS [1]: AA (a compound having 20 or more is denoted as AA) | HRAS /KRAS [2]: A (a compound having 10 or more and less than 20 is denoted as A) | IC50 [3]: 13.1 nM

CC[C@H](C)[C@@H]1NC(=O)[C@H](CC(C)C)N(C)C(=O)C[C@@H](C(=O)N(C)C)N(C)C(=O)[C@H](C2CCCC2)N(C)C(=O)C2(CCCC2)NC(=O)[C@@H]2C[C@H](C)CN2C(=O)[C@H](CCc2cc(F)c(C(F)(F)F)c(F)c2)NC(=O)CN(C)C(=O)[C@H](Cc2ccc(C(F)(F)F)cc2)N2CC/C=C\C[C@@H](C2=O)N(C)C(=O)CN(C)C1=O [PP2268]
NRAS /KRAS [1]: A (a compound having 10 or more and less than 20 is denoted as A) | HRAS /KRAS [2]: A (a compound having 10 or more and less than 20 is denoted as A) | IC50 [3]: 9.8 nM

CCO[C@@H]1C[C@H]2C(=O)NC3(CCCC3)C(=O)N(C)[C@@H](C3CCCC3)C(=O)N(C)[C@H](C(=O)N(C)C)CC(=O)N(C)[C@@H](CC(C)C)C(=O)N[C@@H]([C@@H](C)CC)C(=O)N(C)CC(=O)N(C)[C@H]3C/C=C\CCN(C3=O)[C@@H](Cc3ccc(C(F)(F)F)cc3)C(=O)N(C)CC(=O)N[C@@H](CCc3cc(F)c(Cl)c(F)c3)C(=O)N2C1 [PP2269]
NRAS /KRAS [1]: A (a compound having 10 or more and less than 20 is denoted as A) | HRAS /KRAS [2]: A (a compound having 10 or more and less than 20 is denoted as A) | IC50 [3]: 20 nM

CCC[C@H]1C(=O)N[C@@H]([C@@H](C)CC)C(=O)N(C)CC(=O)N(C)[C@H]2C/C=C\CCN(C2=O)[C@@H](Cc2ccc(C(F)(F)F)cc2)C(=O)N(C)CC(=O)N[C@@H](CCc2ccc(C(F)(F)F)c(Cl)c2)C(=O)N2C[C@@H](C)C[C@H]2C(=O)NC2(CC(C)(C)C2)C(=O)N(C)[C@@H](C2CCCC2)C(=O)N(C)[C@H](C(=O)N(C)C)CC(=O)N1C [PP2270]
NRAS /KRAS [1]: B (a compound having 3 or more and less than 10 is denoted as B) | HRAS /KRAS [2]: B (a compound having 3 or more and less than 10 is denoted as B) | IC50 [3]: 10.4 nM
